This note sets out measurements from US20250136576A1, “Heterocyclic Compounds and Uses Thereof” (ACEA Therapeutics, Inc., priority 2021, published 2025).

Common to all, as to type: cell-based
Test [1] has as its system MV-4-11 (AML) cells. Kind of test: Cell proliferation and growth inhibition assay (CCK-8) in MV-4-11. As to conditions: Homo sapiens, MV4-11; MV-4-11 cells, treated with test compounds for 72 hrs, CCK-8 viability. As for the experimental part: MV-4-11 and H1975 cells were obtained from the American Type Culture Collection and KM12-luc cells were obtained from JCRB Cell Bank. All cell lines were maintained at 37° C. with 5% C02, in media supplemented with 10% fetal bovine serum and penicillin (100 units/mL) and streptomycin (100 μg/mL). MV-4-11 cells were maintained in Iscove's Modified Dubecco's Medium, H1975 cells were cultured with RPMI 1640 media, and KM12-luc cells were maintained in Dulbecco's Modification of Eagle's Medium. CCK-8 reagent was obtained from Yeasen.
Cell proliferation was assessed by CCK-8 assay (Yeasen) per the manufacturer's instructions. The MV-4-11 (AML), H1975, and KM12-luc cells were seeded at 30,000, 3,000 and 2,500 cells per well onto 96-well plates, and after a 24 h incubation, the cells were treated with test compounds for 72 hrs. Cell viability was assayed by incubating the cells with CCK-8 reagent for 1-4 hrs. Absorbance was measured at OD450 using the Beckman DTX880. The data was calculated using GraphPad Prism version 6.01. The IC50 values were fitted using a non-linear regression model with a sigmoidal dose response.

In test [2] the test system is H1975 cells. The test is described as follows: Cell proliferation and growth inhibition assay (CCK-8) in H1975. As to conditions: Homo sapiens, NCI-H1975, 72 h, treated with test compounds for 72 hrs, CCK-8 viability, read-out: EGFR IC50 in H1975. In a few lines:
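Cells seeded at 30,000 (MV-4-11, IMDM) or 3,000 (H1975, RPMI 1640) per well, left 24 h, then compound-treated 72 h at 37 °C, 5% CO2, 10% FBS. Viability read by CCK-8 (1–4 h) at OD450. IC50 from sigmoidal dose-response nonlinear regression.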

The subject of test [3] is KM12-luc cells. The test is described as follows: Cell proliferation and growth inhibition assay (CCK-8) in KM12-luc. As to conditions: KM12-Luc, 72 h, KM12-luc cells, treated with test compounds for 72 hrs, CCK-8 viability; read-out: NTRK IC50 in KM12-luc. In a few lines: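 Cells were grown at 37 °C, 5% CO2 with 10% FBS: MV-4-11 in IMDM, H1975 in RPMI 1640, KM12-luc in DMEM. Viability was read by CCK-8 (1-4 hrs reagent incubation, absorbance at OD450). IC50 came from a non-linear sigmoidal dose-response fit.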

In general, IC50 refers to the midpoint of a concentration-inhibition curve. `CCC(=O)Nc1cccc(Nc2ncc(Cl)c(Nc3ccc(C4CCCN(C)C4)cc3OC)n2)c1` (stereo not drawn) [Compound 166, N-(3-((5-chloro-4-((2-methoxy-4-(1-methylpiperidin-3-yl)phenyl)amino)pyrimidin-2-yl)amino)phenyl)propionamide]: the IC50 in test [1] came to 96.8 nM; in test [2], 691 nM; in test [3] it was 39.5 nM.
Turning to `CCC(=O)Nc1cccc(Nc2ncc(C(F)(F)F)c(Nc3ccc(N4CCN(C(C)=O)CC4)cc3OC)n2)c1` [Compound 169, N-(3-((4-((4-(4-acetylpiperazin-1-yl)-2-methoxyphenyl)amino)-5-(trifluoromethyl)pyrimidin-2-yl)amino)phenyl)propionamide], the half-inhibitory concentration (IC50) is 25.9 nM in test [1], 285 nM in test [2] and 43.8 nM in test [3].
Turning to `COc1cnc(Nc2ccc(OCCN(C)C)c(NC(C)=O)c2)nc1-c1c[nH]c2c(C)cccc12` [Compound 284, N-(2-(2-(dimethylamino)ethoxy)-5-((5-methoxy-4-(7-methyl-1H-indol-3-yl)pyrimidin-2-yl)amino)phenyl)acetamide], the concentration for half-maximal inhibition (IC50) in test [1] was found to be 63.8 nM; in test [2], 1030 nM; in test [3] it was 15 nM.
Taken in the same sequence, the figures for `CCN(CCN(C)C)c1ccc(Nc2ncc(C(F)(F)F)c(-c3c[nH]c4cccc(F)c34)n2)cc1N` [Compound 319, N^1-(2-(dimethylamino)ethyl)-N^1-ethyl-N^4-(4-(4-fluoro-1H-indol-3-yl)-5-(trifluoromethyl)pyrimidin-2-yl)benzene-1,2,4-triamine] were 29.7 nM, 772 nM and 19.1 nM.
Taken in the same sequence, the figures for `CC(=O)Nc1cc(Nc2ncc(C(F)(F)F)c(-c3c[nH]c4c(F)cccc34)n2)ccc1N(C)CCN(C)C` [Compound 334, N-(2-((2-(dimethylamino)ethyl)(methyl)amino)-5-((4-(7-fluoro-1H-indol-3-yl)-5-(trifluoromethyl)pyrimidin-2-yl)amino)phenyl)acetamide] were 3.4 nM, 92.1 nM and 3 nM.
On to `CN(C)CCN(C)c1ccc(Nc2ncc(C(F)(F)F)c(-c3c[nH]c4c(F)cccc34)n2)cc1N` [Compound 335, N^1-(2-(dimethylamino)ethyl)-N^1-methyl-N^4-(4-(7-fluoro-1H-indol-3-yl)-5-(trifluoromethyl)pyrimidin-2-yl)benzene-1,2,4-triamine], for which the figures for the half-inhibitory concentration (IC50) in test [1], in test [2] and in test [3] were 3.1 nM, 75.4 nM and 6.1 nM, respectively.
On to `CCN(CCN(C)C)c1ccc(Nc2ncc(C(F)(F)F)c(-c3c[nH]c4c(F)cccc34)n2)cc1N` [Compound 337, N^1-(2-(dimethylamino)ethyl)-N^1-ethyl-N^4-(4-(7-fluoro-1H-indol-3-yl)-5-(trifluoromethyl)pyrimidin-2-yl)benzene-1,2,4-triamine], for which the IC50 is 11.1 nM in test [1], 366 nM in test [2] and 10.4 nM in test [3].
Regarding `CC(=O)Nc1cc(Nc2ncc(C(F)(F)F)c(-c3c[nH]c4c(F)cccc34)n2)ccc1OCCN(C)C` [Compound 343, N-(2-(2-(dimethylamino)ethoxy)-5-((4-(7-fluoro-1H-indol-3-yl)-5-(trifluoromethyl)pyrimidin-2-yl)amino)phenyl)acetamide], the IC50 is 2.6 nM in test [1], 77.3 nM in test [2] and 4.3 nM in test [3].
Take `CC(=O)Nc1cc(Nc2ncc(C(F)(F)F)c(-c3c[nH]c4c(C)cccc34)n2)ccc1N(C)CCN(C)C` [Compound 358, N-(2-((2-(dimethylamino)ethyl)(methyl)amino)-5-((4-(7-methyl-1H-indol-3-yl)-5-(trifluoromethyl)pyrimidin-2-yl)amino)phenyl)acetamide]: the IC50 in test [1] turned out to be 4.4 nM; in test [2], 47 nM; in test [3], 3.1 nM.
The corresponding values for `Cc1cccc2c(-c3nc(Nc4ccc(N(C)CCN(C)C)c(N)c4)ncc3C(F)(F)F)c[nH]c12` [Compound 359, N^1-(2-(dimethylamino)ethyl)-N^1-methyl-N^4-(4-(7-methyl-1H-indol-3-yl)-5-(trifluoromethyl)pyrimidin-2-yl)benzene-1,2,4-triamine] are 5.9 nM, 120 nM and 5.5 nM.
Taken in the same sequence, the figures for `CC(=O)Nc1cc(Nc2ncc(C(F)(F)F)c(-c3c[nH]c4c(C)cccc34)n2)ccc1OCCN(C)C` [Compound 365, N-(2-(2-(dimethylamino)ethoxy)-5-((4-(7-methy-1H-indol-3-yl)-5-(trifluoromethyl)pyrimidin-2-yl)amino)phenyl)acetamide] were 4.4 nM, 68.3 nM and 4.3 nM.
In the case of `COc1cccc2c(-c3nc(Nc4ccc(N(C)CCN(C)C)c(NC(C)=O)c4)ncc3C(F)(F)F)c[nH]c12` [Compound 374, N-(2-((2-(dimethylamino)ethyl)(methyl)amino)-5-((4-(7-methoxy-1H-indol-3-yl)-5-(trifluoromethyl)pyrimidin-2-yl)amino)phenyl)acetamide], the IC50 is 5.3 nM in test [1], 52.5 nM in test [2] and 3.7 nM in test [3].
`COc1cccc2c(-c3nc(Nc4ccc(N(C)CCN(C)C)c(N)c4)ncc3C(F)(F)F)c[nH]c12` [Compound 375, N^1-(2-(dimethylamino)ethyl)-N^4-(4-(7-methoxy-1H-indol-3-yl)-5-(trifluoromethyl)pyrimidin-2-yl)-N^1-methylbenzene-1,2,4-triamine]: the IC50 turned out to be 4.2 nM in test [1], 152 nM in test [2] and 4.1 nM in test [3].
The corresponding values for `COc1cccc2c(-c3nc(Nc4ccc(OCCN(C)C)c(NC(C)=O)c4)ncc3C(F)(F)F)c[nH]c12` [Compound 381, N-(2-(2-(dimethylamino)ethoxy)-5-((4-(7-methoxy-1H-indol-3-yl)-5-(trifluoromethyl)pyrimidin-2-yl)amino)phenyl)acetamide] are 5.2 nM, 168 nM and 7.2 nM.
Turning to `CC(=O)Nc1cc(Nc2ncc(Cl)c(-c3cnc(C(C)C)n3C)n2)ccc1N(C)CCN(C)C` [Compound 452, N-(5-((5-chloro-4-(2-isopropyl-1-methyl-1H-imidazol-5-yl)pyrimidin-2-yl)amino)-2-((2-(dimethylamino)ethyl)(methyl)amino)phenyl)acetamide], the IC50 in test [1] was > 1000 nM; in test [2] it was > 20000 nM.
For `COc1cnc(Nc2ccc(N3CC[C@H](N(C)C)C3)c(NC(C)=O)c2)nc1-c1c[nH]c2c(F)cccc12` [Compound S-280, (S)—N-(2-(3-(dimethylamino)pyrrolidin-1-yl)-5-((4-(7-fluoro-1H-indol-3-yl)-5-methoxypyrimidin-2-yl)amino)phenyl)acetamide], the 50% inhibitory concentration (IC50) in test [2] was 1250 nM; in test [3], 14.6 nM.
On to `COc1cnc(Nc2ccc(N3CC[C@H](N(C)C)C3)c(NC(C)=O)c2)nc1-c1c[nH]c2c(OC)cccc12` [Compound S-288, (S)—N-(2-(3-(dimethylamino)pyrrolidin-1-yl)-5-((5-methoxy-4-(7-methoxy-1H-indol-3-yl)pyrimidin-2-yl)amino)phenyl)acetamide], for which the IC50 in test [2] came to 1260 nM; in test [3] it was 16.9 nM.
The corresponding values for `CC(=O)Nc1cc(Nc2ncc(C(F)(F)F)c(-c3cn(C)c4c(C)cccc34)n2)ccc1N1CC[C@H](N(C)C)C1` [Compound S-373, (S)—N-(5-((4-(1,7-dimethyl-1H-indol-3-yl)-5-(trifluoromethyl)pyrimidin-2-yl)amino)-2-(3-(dimethylamino)pyrrolidin-1-yl)phenyl)acetamide] are 461 nM and 21.1 nM.
Turning to `COc1cccc2c(-c3nc(Nc4ccc(N5CC[C@H](N(C)C)C5)c(NC(C)=O)c4)ncc3C(F)(F)F)cn(C)c12` [Compound S-389, (S)—N-(2-(3-(dimethylamino)pyrrolidin-1-yl)-5-((4-(7-methoxy-1-methyl-1H-indol-3-yl)-5-(trifluoromethyl)pyrimidin-2-yl)amino)phenyl)acetamide], the IC50 worked out at 898 nM in test [2] and 23.5 nM in test [3].
The corresponding values for `COc1cccc2c(-c3nc(Nc4ccc(N5CC[C@H](N(C)C)C5)c(NC(C)=O)c4)ncc3Cl)cn(C)c12` [Compound S-435, (S)—N-(5-(5-chloro-4-(7-methoxy-1-methyl-1H-indol-3-yl)pyrimidin-2-ylamino)-2-(3-(dimethylamino)pyrrolidin-1-yl)phenyl)acetamide] are 1560 nM and 48.1 nM.
